Where two headings read alike, the source gives them in different places.
Assays:
S. aureus ATCC 25923 [1] = test system: S. aureus ATCC 25923; design: method as in earlier work; details: starred (*) value; published previously; cited from earlier work
[2] = test system: AcrAB-TolC efflux pump in K. aerogenes strain Ea-289; design: method as in PMID 30691112; details: compound 100 µM; previously described; cited from earlier work
[3] = test system: K. aerogenes Ea-289 (overexpression of AcrAB-TolC); test: MIC of compounds, K. aerogenes Ea-289; format: cell-based; details: Klebsiella aerogenes
Protocol: At first, MIC values of compounds were determined (Table S15, Supplementary). Next, their abilities to reduce MICs of the AcrAB-TolC substrates doxycycline (a tetracycline-class antibiotic) and erythromycin were studied (Table S16, Supplementary). […]
(§1) Determination of MIC values, i.e., intrinsic antibacterial activity, of products and antibiotics (oxacillin, ampicillin, vancomycin, ciprofloxacin, and erythromycin) in the presence and absence of compounds tested was conducted by the use of a standard 2-fold microdilution method in cation-adjusted Mueller Hinton broth following the Clinical and Laboratory Standards Institute (CLSI) guidelines. The MIC values were detected using an Infinite M200 pro Tecan microplate reader (Tecan® France, SA-Lyon, France). MIC determinations were conducted in 96-well microtiter plates and repeated 3–4 times.
(§2) MIC values of 5-arylideneimidazolone derivatives were determined following CLSI recommendations as in the methods described for S. aureus (Section 3.3.1).

S. aureus ATCC 25923 [4] = test system: S. aureus ATCC 25923; design: method as in earlier work; details: published previously, cited from earlier work
[5] = test system: K. aerogenes Ea-294, Ea-308 (devoid of AcrAB); test: MIC of compounds, K. aerogenes Ea-294, Ea-308; format: cell-based; details: Klebsiella aerogenes, read-out: Minimal Inhibitory Concentration (MIC)
Source text: (§3) A subset of compounds, namely 7, 12–16, 19, 20, was also examined for the potential to increase the effectiveness of the antibiotics chloramphenicol, erythromycin, doxycycline, and the fluoroquinolone antibiotic norfloxacin, which all are substrates for AcrAB-TolC in K. aerogenes. In addition to strain Ea-289, the adjuvant-like effect of the compounds was investigated in strain CM-64, which also overexpresses the AcrAB-TolC efflux pump, although it has no changes in porin content, and in the Ea-289 derivatives, i.e., Ea-294 and Ea-308, which are devoid of AcrAB (Table S17, Supplementary).
as §1, §2

[6] = test system: K. aerogenes Ea-294, Ea-308; design: method as in earlier work; details: doxycycline, chloramphenicol, norfloxacin, already published, cited from earlier work
K. aerogenes Ea-289 [7] = test system: K. aerogenes Ea-289; design: method as in earlier work; details: doxycycline, chloramphenicol, norfloxacin, already published, cited from earlier work
S. aureus ATCC 25923 [8] = test: MIC determination (microdilution), S. aureus ATCC 25923; format: cell-based, Staphylococcus aureus; details: Staphylococcus aureus, ATCC25923, unstarred values of column MIC value/no precipitation; read-out: MIC value
Protocol: as §1
(§4) Initially, MICs of a series of imidazolone derivatives were assessed against susceptible (reference) and MDR strains of staphylococci. Next, MIC values of the aforementioned antibiotics were determined in the absence and presence of imidazolone derivatives to assess the chemosensitizing effect of these compounds. […] 5-arylideneimidazolones and 5-arylidenethiazolones, which precipitated after addition to bacterial suspension in MH II medium, were tested at the highest concentrations at which precipitation was not observed. […] Antibacterial activity of compounds and antibiotics ampicillin, vancomycin, ciprofloxacin, and erythromycin was recorded as the lowest concentration of molecules able to inhibit bacterial growth after 18 h incubation at 37 °C. The incubation of bacterial strains exposed to oxacillin paired with compounds tested was conducted at 35 °C and extended to 24 h due to frequent occurrence of heterogeneity among MRSA strains. The results are presented as activity gain (A) parameter which was calculated as ratio of MIC of a certain antibiotic (MICAnt) to its MICAnt+Comp, observed in combination with a tested compound (7, 12–16, 19, or 20; Equation (1)). (1) A=(MICAnt/MICAnt+Comp)

MRSA 19449 = test: MIC determination (microdilution), MRSA 19449; format: cell-based, Staphylococcus aureus; details: Staphylococcus aureus, MRSA, no precipitation
Protocol: as §1, §4

K. aerogenes CM-64 = test system: K. aerogenes CM-64; design: method as in earlier work; details: doxycycline, chloramphenicol, norfloxacin, already published, cited from earlier work
[9] = test system: K. aerogenes CM-64 (overexpression of AcrAB-TolC); test: MIC of compounds, K. aerogenes CM-64; format: cell-based; details: Klebsiella aerogenes, read-out: Minimal Inhibitory Concentration (MIC)
Source text: as §3, §1, §2

K. aerogenes Ea-289 [10] = test: MIC reduction assay (antibiotic adjuvant), K. aerogenes Ea-289; format: cell-based, Klebsiella aerogenes;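 further: compound at no more than one quarter of its own MIC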
Protocol: At first, MIC values of compounds were determined (Table S15, Supplementary). Next, their abilities to reduce MICs of the AcrAB-TolC substrates doxycycline (a tetracycline-class antibiotic) and erythromycin were studied (Table S16, Supplementary).
as §3, §4, §2

[11] = read-out: MIC value/no precipitation

| SMILES | no precipitation: highest possible concentration of a compound (due to precipitation) at which growth of bacteria was observed (S. aureus ATCC 25923 [1]) | Inhibition efficiency (IE) towards extrusion of 1,2'-dNA [2] | MIC ([3]; read-out: Minimal Inhibitory Concentration (MIC)) | MIC reduction (S. aureus ATCC 25923 [4]; oxacillin alone to oxacillin + compound) | A (activity gain) (S. aureus ATCC 25923 [4]; oxacillin) | MIC [5] | MIC reduction ([6]; erythromycin + compound) | A (activity gain) ([6]; erythromycin) | MIC reduction (K. aerogenes Ea-289 [7]; erythromycin + compound) | A (activity gain) (K. aerogenes Ea-289 [7]; erythromycin) | MIC (S. aureus ATCC 25923 [8]) | MIC (MRSA 19449) | MIC reduction (K. aerogenes CM-64; erythromycin + compound) | A (activity gain) (K. aerogenes CM-64; erythromycin) | MIC [9] | MIC [3, 11] | A (activity gain) (K. aerogenes Ea-289 [10]; doxycycline) | A (activity gain) (K. aerogenes Ea-289 [10]; erythromycin) | melting point |
| --- | --- | --- | --- | --- | --- | --- | --- | --- | --- | --- | --- | --- | --- | --- | --- | --- | --- | --- | --- |
| NC1=N/C(=C\c2c3ccccc3cc3ccccc23)C(=O)N1CCCN1CCOCC1 [Compound 20] | 0.0625 mM | 44% | > 2000 µM | No effect | 1 | 2000 µM | No effect | 1 | No effect | 1 | 31.2 to 250 µM | 31.2 to 250 µM | No effect | 1 | > 2000 µM | – | – | – | – |
| Cl.NC1=N/C(=C\c2cccc3ccccc23)C(=O)N1CCCN1CCOCC1 [Compound 18, (Z)-5-(Naphthalen-1-ylmethylene)-2-Amino-3-(3-Morpholinopropyl)-Imidazol-4(5H)-one Hydrochloride] | – | – | – | – | – | – | – | – | – | – | 1000 µM | 2000 µM | – | – | – | > 250 µM | 1 | 1 | 265 to 268 °C |
| Cl.O=C1N=C(N2CCC(N3CCOCC3)CC2)S/C1=C\c1ccc2c(c1)Cc1ccccc1-2 [Compound 22, (Z)-5-((9H-Fluoren-2-yl)methylene)-2-(4-Morpholinopiperidin-1-yl)Thiazol-4-one Hydrochloride] | – | – | – | – | – | – | – | – | – | – | 62.5 µM | 31.2 to 250 µM | – | – | – | > 250 µM | 1 | 1 | 244 to 246 °C |
| Cl.O=C1N=C(NCCCN2CCOCC2)S/C1=C\c1ccc2c(c1)Cc1ccccc1-2 [Compound 23, (Z)-5-((9H-Fluoren-2-yl)methylene)-2-((3-Morpholinopropyl)amino)Thiazol-4(5H)-one Hydrochloride] | – | – | – | – | – | – | – | – | – | – | 31.2 to 250 µM | 31.2 to 250 µM | – | – | – | > 62.5 µM | 1 | 1 | 243 to 245 °C |

— article PMC7922564, “Molecular Insights into an Antibiotic Enhancer Action of New Morpholine-Containing 5-Arylideneimidazolones in the Fight against MDR Bacteria” (International Journal of Molecular Sciences, 2021)
